According to publication PMC9880438, “Pharmacokinetics of active compounds of a Terminalia chebula Retz. Ethanolic extract after oral administration rats using UPLC-MS/MS” (Frontiers in Pharmacology, 2023):

Legend:
[1] = Stability of QC samples of the analytes in rat plasma under storage conditions; type: physicochemical; conditions: n = 6
Experimental: Preparation of quality control (QC) samples with three concentrations (low, medium, and high) of 16, 160, and 3,200 ng/ml for ellagic acid; 1.6, 16, 320 ng/ml for protocatechuic acid, ethyl gallate and 1,2,3,4,6-O-pentagalloylglucose; 40, 400 and 8,000 ng/ml for chebulic acid, gallic acid, corilagin and chebulinic acid and 160, 1,600, 32000 ng/ml for chebulagic acid. Both QC samples and stock solutions were stored in a refrigerator at 4°C.
Under variable treatment conditions: stored for 12 h at auto-sampler, for 4 hours at room temperature, under three freeze-thaw cycles, and kept at −80°C for 7 days, quality control samples were analyzed to assess the stability of the nine analytes in plasma.

[2] = test system: HepG2 cells; set-up: method as in Achari et al., 2011; conditions: 50 μM; ref Achari et al., 2011; cited from earlier work
[3] = Pharmacokinetic study in rats after oral administration of TC extracts (UPLC-MS/MS of plasma); conditions: male, Sprague-Dawley, rat, plasma, po, 10 g/kg
Experimental: UPLC-MS/MS system was used for analysis and monitoring, which consisted primarily of an Agilent 1290 UPLC system (Agilent Technologies, Germany) and an Agilent 6,470 series triple quad (TQ) mass spectrometer (MS) (Agilent Technologies, Singapore) equipped with an electrospray ionization source.
Separation was carried out on an ACQUITY UPLC® HSS T3 column (2.1 × 100 mm, 1.8 μm), and temperature in the column was kept at 20°C. In the mobile phase, 0.1% formic acid in water and acetonitrile were used as solvents A and B, respectively. Gradient elution was performed as follows: 1%–5% B at 0–3 min; 5%–30% B at 3–4 min; 30%–40% B at 4–8 min; 40%–100% B at 8–9 min; 100%–100% B at 9–12 min. The flow rate was set at 0.3 ml/min and the injection volume was 10 μL.
Multiple reaction monitoring (MRM) was used for quantitative analysis in negative (−) ionization mode. The mass spectrometric parameters were set as follows: drying gas (N2) temperature was 300°C; gas (N2) flow rate was 7 L/min; atomizer pressure was 35 psi; sheath gas flow was 11 L/min and capillary voltage was 3800 V. The specific mass spectrometric parameters of the precursor ion, product ion, fragmentor, collision energy, and ion modes of the nine compounds and IS are shown in Table 1.
The plasma sample (100 μl) was sequentially spiked with 20 μl IS solutions (caffeic acid, 1,000 ng/ml); 20 μL methanol, and 10 μl formic acid, then vortex-mixed for 1 min. The mixture was precipitated protein with 1,000 μl methanol by vortex mixing for 3 min. The supernatant was collected into a 1.5 ml clean centrifuge tube after centrifugation at for 10 min 14,000 rpm, and evaporated under a nitrogen stream until dry. After that, the residue was redissolved in 100 μl methanol, vortex-mixed for 3 min, then centrifuged for 10 min at 14,000 rpm. 10 μl analyte was injected into the UPLC-MS/MS system.
In this study, six of male rats were used, given free access to water, and fasted for 12 h before the experimental period. The TC extracts were dissolved in 0.5% CMC-Na aqueous solution as a suspension at a concentration of 1 g/ml. A dose of 10 g/kg of the suspension was administered to the rats orally, the blood samples of approximately 300 μL were drawn from the fundus venous plexus of rats pre- and post-oral administration at 0.00, 0.08, 0.17, 0.25, 0.50, 0.75, 1, 2, 4, 6, 8, 10, 12, 24, 36, 48, 60, 72, 84, 96, 120, 144 and 168 h, respectively. For analysis, the plasma supernatants collected from the centrifuged plasma were frozen at −80°C after centrifugation for 10 min at 6,000 rpm.
Data were expressed as mean ± standard deviation (mean ± SD). MassHunter Workstation software (version B.09.00) was quantitatively used to calculate the plasma concentrations of nine analytes. To evaluate the specific pharmacokinetic parameters, DAS Software (DAS 3.0, Medical College of Wannan, China) was used to process the pharmacokinetic results.

[4] = set-up: method as in Mishra et al., 2013; conditions: dose of 40 mg/kg; ref Mishra et al., 2013; cited from earlier work

O=C(O)C[C@@H]1C(=O)O[C@H]2[C@@H]3OC(=O)c4cc(O)c(O)c(O)c4-c4c(cc(O)c(O)c4O)C(=O)OC[C@H]2O[C@@H](OC(=O)c2cc(O)c(O)c(O)c2)[C@@H]3OC(=O)c2cc(O)c(O)c3c2[C@H]1[C@H](O)C(=O)O3 [Chebulagic acid, chebulagic acid]
Measured concentration after storage ([1]; spiked 160 ng/mL, autosampler for 12 h): 145.5 ± 16.4 ng/mL
Measured concentration after storage ([1]; spiked 160 ng/mL, room temperature for 4 h): 160.8 ± 6.2 ng/mL
Measured concentration after storage ([1]; spiked 160 ng/mL, three freeze-thaw cycles): 167.9 ± 7.8 ng/mL
Measured concentration after storage ([1]; spiked 160 ng/mL, −80°C for 7 days): 168.0 ± 4.2 ng/mL
Measured concentration after storage ([1]; spiked 1,600 ng/mL, autosampler for 12 h): 1,448.9 ± 70.5 ng/mL
Measured concentration after storage ([1]; spiked 1,600 ng/mL, room temperature for 4 h): 1,465.3 ± 158.2 ng/mL
Measured concentration after storage ([1]; spiked 1,600 ng/mL, three freeze-thaw cycles): 1,391.9 ± 61.5 ng/mL
Measured concentration after storage ([1]; spiked 1,600 ng/mL, −80°C for 7 days): 1,512.8 ± 65.1 ng/mL
Measured concentration after storage ([1]; spiked 32000 ng/mL, autosampler for 12 h): 34277.3 ± 2,721.2 ng/mL
Measured concentration after storage ([1]; spiked 32000 ng/mL, room temperature for 4 h): 31970.0 ± 1,256.3 ng/mL
Measured concentration after storage ([1]; spiked 32000 ng/mL, three freeze-thaw cycles): 33770.8 ± 3,365.5 ng/mL
Measured concentration after storage ([1]; spiked 32000 ng/mL, −80°C for 7 days): 31615.2 ± 953.8 ng/mL
Sensitivity of HepG2 cells towards Dox induced cytotoxicity [2]: increased the sensitivity
AUC [3]: 231 ± 64.6 µg·h/mL
AUC(0-inf) [3]: 234 ± 65.7 µg·h/mL
Cmax [3]: 4980 ng/mL
MRT [3]: 49.8 ± 4.87 h
MRT inf [3]: 51.8 ± 5.3 h
Tmax [3]: 5.67 ± 3.67 h
half-life [3]: 20 ± 2.51 h

O=C(O)C[C@@H]1C(=O)O[C@H]2[C@H](OC(=O)c3cc(O)c(O)c(O)c3)[C@@H](OC(=O)c3cc(O)c(O)c4c3[C@H]1[C@H](O)C(=O)O4)[C@H](OC(=O)c1cc(O)c(O)c(O)c1)O[C@@H]2COC(=O)c1cc(O)c(O)c(O)c1 [Chebulinic acid, chebulinic acid]
Measured concentration after storage ([1]; spiked 40 ng/mL, autosampler for 12 h): 42.2 ± 5.1 ng/mL
Measured concentration after storage ([1]; spiked 40 ng/mL, room temperature for 4 h): 36.8 ± 3.9 ng/mL
Measured concentration after storage ([1]; spiked 40 ng/mL, three freeze-thaw cycles): 41.8 ± 2.3 ng/mL
Measured concentration after storage ([1]; spiked 40 ng/mL, −80°C for 7 days): 47.1 ± 1.6 ng/mL
Measured concentration after storage ([1]; spiked 400 ng/mL, autosampler for 12 h): 359.7 ± 18.1 ng/mL
Measured concentration after storage ([1]; spiked 400 ng/mL, room temperature for 4 h): 414.3 ± 21.9 ng/mL
Measured concentration after storage ([1]; spiked 400 ng/mL, three freeze-thaw cycles): 378.1 ± 29.2 ng/mL
Measured concentration after storage ([1]; spiked 400 ng/mL, −80°C for 7 days): 373.5 ± 23.6 ng/mL
Measured concentration after storage ([1]; spiked 8,000 ng/mL, autosampler for 12 h): 7,174.2 ± 321.2 ng/mL
Measured concentration after storage ([1]; spiked 8,000 ng/mL, room temperature for 4 h): 8,592.3 ± 543.8 ng/mL
Measured concentration after storage ([1]; spiked 8,000 ng/mL, three freeze-thaw cycles): 8,447.4 ± 574.6 ng/mL
Measured concentration after storage ([1]; spiked 8,000 ng/mL, −80°C for 7 days): 8,787.4 ± 801 ng/mL
Anti-gastric ulcer effect [4]: good anti-gastric ulcer effect
AUC [3]: 38.2 ± 16.3 µg·h/mL
AUC(0-inf) [3]: 41.9 ± 15.8 µg·h/mL
Cmax [3]: 853 ± 433 ng/mL
MRT [3]: 58.2 ± 5.63 h
MRT inf [3]: 76 ± 15.3 h
Tmax [3]: 1.83 ± 0.41 h
half-life [3]: 43.3 ± 13.2 h
